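A five-concentration, 48-hour dose response in 96-well plates underlies each endpoint, interpolated linearly between surrounding concentrations. GI50 = concentration required for 50% inhibition of growth. The concentration for full growth arrest is given as TGI.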
Key:
Experiment in all cases: NCI anticancer screen, dose series, 48 h
HL-60(TB) leukemia = system: HL-60(TB) leukemia
UACC-257 melanoma = system: UACC-257 melanoma
CAKI-1 renal = system: CAKI-1 renal
SF-268 CNS = system: SF-268 CNS
MOLT-4 leukemia = system: MOLT-4 leukemia
TK-10 renal = system: TK-10 renal
SF-539 CNS = system: SF-539 CNS
SK-MEL-28 melanoma = system: SK-MEL-28 melanoma
CCRF-CEM leukemia = system: CCRF-CEM leukemia
MCF7 breast = system: MCF7 breast
SN12C renal = system: SN12C renal
A549 NSCLC = system: A549 NSCLC
HOP-62 NSCLC = system: HOP-62 NSCLC
SF-295 CNS = system: SF-295 CNS
SK-MEL-5 melanoma = system: SK-MEL-5 melanoma
U251 CNS = system: U251 CNS
UACC-62 melanoma = system: UACC-62 melanoma
SR leukemia = system: SR leukemia
UO-31 renal = system: UO-31 renal
OVCAR-3 ovarian = system: OVCAR-3 ovarian
COLO 205 colon = system: COLO 205 colon
MALME-3M melanoma = system: MALME-3M melanoma
MDA-MB-231 breast = system: MDA-MB-231 breast
DU-145 prostate = system: DU-145 prostate
SW-620 colon = system: SW-620 colon
IGROV1 ovarian = system: IGROV1 ovarian
NCI-H226 lung = system: NCI-H226 lung
KM12 colon = system: KM12 colon
HOP-92 NSCLC = system: HOP-92 NSCLC
NCI/ADR-RES ovarian = system: NCI/ADR-RES ovarian
HCT-15 colon = system: HCT-15 colon
786-0 renal = system: 786-0 renal
MDA-MB-435 = system: MDA-MB-435
PC-3 prostate = system: PC-3 prostate
OVCAR-5 ovarian = system: OVCAR-5 ovarian
EKVX NSCLC = system: EKVX NSCLC
SK-OV-3 ovarian = system: SK-OV-3 ovarian
T-47D breast = system: T-47D breast
RXF 393 renal = system: RXF 393 renal
ACHN renal = system: ACHN renal
SNB-75 CNS = system: SNB-75 CNS
HT29 colon = system: HT29 colon
SK-MEL-2 melanoma = system: SK-MEL-2 melanoma
OVCAR-8 ovarian = system: OVCAR-8 ovarian
NCI-H23 lung = system: NCI-H23 lung
OVCAR-4 ovarian = system: OVCAR-4 ovarian
HS 578T breast = system: HS 578T breast
LOX IMVI melanoma = system: LOX IMVI melanoma
NCI-H460 lung = system: NCI-H460 lung
M14 melanoma = system: M14 melanoma
K-562 leukemia = system: K-562 leukemia
SNB-19 CNS = system: SNB-19 CNS
HCT-116 colon = system: HCT-116 colon
BT-549 breast = system: BT-549 breast
NCI-H522 lung = system: NCI-H522 lung
A498 renal = system: A498 renal
HCC-2998 colon = system: HCC-2998 colon
RPMI-8226 leukemia = system: RPMI-8226 leukemia

`c1ccc(OCC[P+](c2ccccc2)(c2ccccc2)c2ccccc2)cc1` was tested, and the GI50 (HL-60(TB) leukemia) was 0.275 µM, the TGI (HL-60(TB) leukemia) was 1.45 µM and the GI50 (UACC-257 melanoma) was 0.425 µM. For the same compound, the TGI (UACC-257 melanoma) was 5.41 µM, the GI50 (CAKI-1 renal) was 25.4 µM and the TGI (CAKI-1 renal) was > 100 µM. It also gave a GI50 (SF-268 CNS) of 2.05 µM, a TGI (SF-268 CNS) of 13.5 µM and a GI50 (MOLT-4 leukemia) of 3.89 µM. It also gave a TGI (MOLT-4 leukemia) of 27.2 µM, a GI50 (TK-10 renal) of 1.73 µM and a TGI (TK-10 renal) of 14.5 µM. The GI50 (SF-539 CNS) was 1.89 µM, the TGI (SF-539 CNS) was 13.1 µM and the GI50 (SK-MEL-28 melanoma) was 1.24 µM. The TGI (SK-MEL-28 melanoma) was 9.81 µM, the GI50 (CCRF-CEM leukemia) was 0.981 µM and the TGI (CCRF-CEM leukemia) was > 41.4 µM. It also gave a GI50 (MCF7 breast) of 1.24 µM, a TGI (MCF7 breast) of 11.1 µM and a GI50 (SN12C renal) of 1.94 µM. For the same compound, the TGI (SN12C renal) was 16.4 µM, the GI50 (A549 NSCLC) was 2.96 µM and the TGI (A549 NSCLC) was 82.5 µM. For the same compound, the GI50 (HOP-62 NSCLC) was 1.41 µM, the TGI (HOP-62 NSCLC) was 11.1 µM and the GI50 (SF-295 CNS) was 2.05 µM. For the same compound, the TGI (SF-295 CNS) was 15.7 µM, the GI50 (SK-MEL-5 melanoma) was 0.416 µM and the TGI (SK-MEL-5 melanoma) was 1.56 µM. It also gave a GI50 (U251 CNS) of 0.99 µM, a TGI (U251 CNS) of 13 µM and a GI50 (UACC-62 melanoma) of 0.678 µM. The TGI (UACC-62 melanoma) was 8.99 µM, the GI50 (SR leukemia) was 2.31 µM and the TGI (SR leukemia) was 12.3 µM. For the same compound, the GI50 (UO-31 renal) was 16.9 µM, the TGI (UO-31 renal) was > 79 µM and the GI50 (OVCAR-3 ovarian) was 1.11 µM. The TGI (OVCAR-3 ovarian) was 7.69 µM, the GI50 (COLO 205 colon) was 0.549 µM and the TGI (COLO 205 colon) was 2.02 µM. The GI50 (MALME-3M melanoma) was 1.48 µM, the TGI (MALME-3M melanoma) was 12.9 µM and the GI50 (MDA-MB-231 breast) was 2.44 µM. It also gave a TGI (MDA-MB-231 breast) of 23.9 µM, a GI50 (DU-145 prostate) of 2.11 µM and a TGI (DU-145 prostate) of 22.8 µM. For the same compound, the GI50 (SW-620 colon) was 1.76 µM, the TGI (SW-620 colon) was 11.8 µM and the GI50 (IGROV1 ovarian) was 0.905 µM. For the same compound, the TGI (IGROV1 ovarian) was 11.8 µM, the GI50 (NCI-H226 lung) was 2.03 µM and the TGI (NCI-H226 lung) was 12.1 µM. For the same compound, the GI50 (KM12 colon) was 1.31 µM, the TGI (KM12 colon) was 8.84 µM and the GI50 (HOP-92 NSCLC) was 0.312 µM. The TGI (HOP-92 NSCLC) was 3.06 µM, the GI50 (NCI/ADR-RES ovarian) was > 66.1 µM and the TGI (NCI/ADR-RES ovarian) was > 100 µM. The GI50 (HCT-15 colon) was 12 µM, the TGI (HCT-15 colon) was > 100 µM and the GI50 (786-0 renal) was 5.15 µM. The TGI (786-0 renal) was 20.8 µM, the GI50 (MDA-MB-435) was 0.433 µM and the TGI (MDA-MB-435) was 4.31 µM. It also gave a GI50 (PC-3 prostate) of 0.535 µM, a TGI (PC-3 prostate) of 11.6 µM and a GI50 (OVCAR-5 ovarian) of 2.66 µM. The TGI (OVCAR-5 ovarian) was 20.6 µM, the GI50 (EKVX NSCLC) was 0.701 µM and the TGI (EKVX NSCLC) was > 40.1 µM. The GI50 (SK-OV-3 ovarian) was 2.08 µM, the TGI (SK-OV-3 ovarian) was 8.16 µM and the GI50 (T-47D breast) was 0.265 µM. The TGI (T-47D breast) was 2.4 µM, the GI50 (RXF 393 renal) was 4.19 µM and the TGI (RXF 393 renal) was 16 µM. For the same compound, the GI50 (ACHN renal) was 8.47 µM, the TGI (ACHN renal) was > 81.9 µM and the GI50 (SNB-75 CNS) was 0.721 µM. For the same compound, the TGI (SNB-75 CNS) was 5.99 µM, the GI50 (HT29 colon) was 0.308 µM and the TGI (HT29 colon) was 10.9 µM. The GI50 (SK-MEL-2 melanoma) was 1.06 µM, the TGI (SK-MEL-2 melanoma) was 10.8 µM and the GI50 (OVCAR-8 ovarian) was 1.54 µM. It also gave a TGI (OVCAR-8 ovarian) of 15 µM, a GI50 (NCI-H23 lung) of 0.938 µM and a TGI (NCI-H23 lung) of 6.7 µM. For the same compound, the GI50 (OVCAR-4 ovarian) was 0.66 µM, the TGI (OVCAR-4 ovarian) was 9.44 µM and the GI50 (HS 578T breast) was 2.27 µM. It also gave a TGI (HS 578T breast) of 16.5 µM, a GI50 (LOX IMVI melanoma) of 0.926 µM and a TGI (LOX IMVI melanoma) of 9.68 µM. The GI50 (NCI-H460 lung) was 1.35 µM, the TGI (NCI-H460 lung) was 10.4 µM and the GI50 (M14 melanoma) was 1.57 µM. For the same compound, the TGI (M14 melanoma) was 9.59 µM, the GI50 (K-562 leukemia) was 0.743 µM and the TGI (K-562 leukemia) was > 85.5 µM. For the same compound, the GI50 (SNB-19 CNS) was 1.39 µM, the TGI (SNB-19 CNS) was 15.1 µM and the GI50 (HCT-116 colon) was 0.491 µM. The TGI (HCT-116 colon) was 11.3 µM, the GI50 (BT-549 breast) was 1.65 µM and the TGI (BT-549 breast) was 12 µM. The GI50 (NCI-H522 lung) was 0.335 µM, the TGI (NCI-H522 lung) was 3.74 µM and the GI50 (A498 renal) was 3.53 µM. It also gave a TGI (A498 renal) of 16.6 µM, a GI50 (HCC-2998 colon) of 0.702 µM and a TGI (HCC-2998 colon) of 12.9 µM. For the same compound, the GI50 (RPMI-8226 leukemia) was 0.187 µM and the TGI (RPMI-8226 leukemia) was 2.14 µM.
